Laboratory results taken from patent US20260085067A1, “CYCLIC SULFONAMIDE RIBONUCLEOTIDE REDUCTASE (RNR) INHIBITORS AND USES THEREOF” (Boundless Bio, Inc., priority 2022, published 2026).

Tests used:
[1] = biological target: T1, RNR (RNR1:RNR2 1:1) (Homo sapiens, UniProt P23921); assay: RNR enzyme activity, rapid-fire mass spectrometry (RF/MS) assay; type: biochemical; conditions: [RNR] 50 nM, 1:1 RNR1:RNR2; CDP 5 μM; ATP 1 mM; 37° C., 45 min; compounds screened up to 50 μM
T1 sequence (P23921 1-792): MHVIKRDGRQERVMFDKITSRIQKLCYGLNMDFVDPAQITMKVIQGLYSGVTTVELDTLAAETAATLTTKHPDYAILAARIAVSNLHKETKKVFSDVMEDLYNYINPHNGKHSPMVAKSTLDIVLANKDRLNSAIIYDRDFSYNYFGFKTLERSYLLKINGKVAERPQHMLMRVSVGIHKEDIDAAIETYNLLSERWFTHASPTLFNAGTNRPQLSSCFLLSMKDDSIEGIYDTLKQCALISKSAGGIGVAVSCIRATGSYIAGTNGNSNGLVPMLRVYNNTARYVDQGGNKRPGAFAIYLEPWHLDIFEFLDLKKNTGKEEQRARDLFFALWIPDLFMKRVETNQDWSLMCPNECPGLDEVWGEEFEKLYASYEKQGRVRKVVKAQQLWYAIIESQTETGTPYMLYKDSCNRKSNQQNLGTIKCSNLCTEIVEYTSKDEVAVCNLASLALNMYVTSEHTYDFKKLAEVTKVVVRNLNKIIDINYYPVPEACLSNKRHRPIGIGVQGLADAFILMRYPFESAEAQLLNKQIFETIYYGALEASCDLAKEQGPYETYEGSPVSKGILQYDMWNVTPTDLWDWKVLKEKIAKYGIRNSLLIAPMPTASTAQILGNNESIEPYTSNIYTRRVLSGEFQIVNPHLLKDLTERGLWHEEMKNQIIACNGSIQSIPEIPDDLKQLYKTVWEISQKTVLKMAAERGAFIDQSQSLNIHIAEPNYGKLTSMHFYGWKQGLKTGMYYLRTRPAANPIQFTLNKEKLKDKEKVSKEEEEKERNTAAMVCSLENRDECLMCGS
Procedure, shortened: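 Human RNR (50 nM final, RNR1:RNR2 1:1) pre-incubated 15 min at room temperature, then reacted 45 min at 37 °C with 5 μM CDP and 1 mM ATP, no NADPH. Reaction quenched with 6% HCOOH; product quantified by rapid-fire mass spectrometry.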

[2] = test system: pCHK1 (S345) in Colo320 DM cells; assay: Alphalisa assay, detection of pCHK1 (S345) in Colo320 DM cells; type: cell-based, human; conditions: Homo sapiens, COLO 320DM, compound overnight (approximately 16 hours)
Procedure, shortened: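 Phospho-CHK1 (S345) read by AlphaLisa SureFire in lysates of human colorectal Colo320 DM cells. Compound treatment ran overnight (~16 h, 37 °C, DMSO <0.5%) on cells seeded the day before.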

Compound	IC50 [1]	IC50 [2]
Cc1ccc(F)c([C@@H](C)[C@@H](c2n[nH]c(=O)o2)N2CN(CCN3CCOCC3)c3cc(Cl)ccc3S2(=O)=O)c1C [Example 84, 5-((1S,2R)-1-(6-chloro-4-(2-morpholinoethyl)-1,1-dioxido-3,4-dihydro-2H-benzo[e][1,2,4]thiadiazin-2-yl)-2-(6-fluoro-2,3-dimethylphenyl)propyl)-1,3,4-oxadiazol-2 (3H)-one]	< 0.02 µM	≤ 1 µM
Cc1ccc(F)c([C@@H](C)[C@@H](c2n[nH]c(=O)o2)N2CN([C@H]3CCN(C)C3)c3cc(Cl)ccc3S2(=O)=O)c1C [Example 86, 5-((1S,2R)-1-(6-chloro-4-((S)-1-methylpyrrolidin-3-yl)-1,1-dioxido-3,4-dihydro-2H-benzo[e][1,2,4]thiadiazin-2-yl)-2-(6-fluoro-2,3-dimethylphenyl)propyl)-1,3,4-oxadiazol-2 (3H)-one]	< 0.02 µM	1 to 5 µM
Cc1ccc(F)c([C@@H](C)[C@@H](c2n[nH]c(=O)o2)N2CN(C3CCOCC3)c3nc(Cl)ccc3S2(=O)=O)c1C [Example 87, 5-((1S,2R)-1-(6-chloro-1,1-dioxido-4-(tetrahydro-2H-pyran-4-yl)-3,4-dihydro-2H-pyrido[2,3-e][1,2,4]thiadiazin-2-yl)-2-(6-fluoro-2,3-dimethylphenyl)propyl)-1,3,4-oxadiazol-2 (3H)-one]	< 0.02 µM	≤ 1 µM
Cc1ccc(F)c([C@@H](C)[C@@H](c2n[nH]c(=O)o2)N2CN(CC(F)F)c3cc(Cl)ccc3S2(=O)=O)c1C [Example 88, 5-((1S,2R)-1-(6-chloro-4-(2,2-difluoroethyl)-1,1-dioxido-3,4-dihydro-2H-benzo[e][1,2,4]thiadiazin-2-yl)-2-(6-fluoro-2,3-dimethylphenyl)propyl)-1,3,4-oxadiazol-2 (3H)-one]	< 0.02 µM	≤ 1 µM
CC(=O)c1cc(Cl)cc2c1S(=O)(=O)N([C@H](c1n[nH]c(=O)o1)[C@H](C)c1c(F)ccc(C)c1C)CN2C1CC1 [Example 95, 5-((1S,2R)-1-(8-acetyl-6-chloro-4-cyclopropyl-1,1-dioxido-3,4-dihydro-2H-benzo[e][1,2,4]thiadiazin-2-yl)-2-(6-fluoro-2,3-dimethylphenyl)propyl)-1,3,4-oxadiazol-2 (3H)-one]	< 0.02 µM	≤ 1 µM
Cc1ccc(F)c([C@@H](C)[C@@H](c2n[nH]c(=O)o2)N2CN(C3CN(CC(F)(F)F)C3)c3cc(Cl)ccc3S2(=O)=O)c1C [Example 96, 5-((1S,2R)-1-(6-chloro-1,1-dioxido-4-(1-(2,2,2-trifluoroethyl)azetidin-3-yl)-3,4-dihydro-2H-benzo[e][1,2,4]thiadiazin-2-yl)-2-(6-fluoro-2,3-dimethylphenyl)propyl)-1,3,4-oxadiazol-2 (3H)-one]	< 0.02 µM	≤ 1 µM
Cc1ccc(F)c([C@@H](C)[C@@H](c2n[nH]c(=O)o2)N2CN([C@@H]3CCOC[C@H]3F)c3cc(Cl)ccc3S2(=O)=O)c1C [Example 97, 5-((1S,2R)-1-(6-chloro-4-((3S,4R)-3-fluorotetrahydro-2H-pyran-4-yl)-1,1-dioxido-3,4-dihydro-2H-benzo[e][1,2,4]thiadiazin-2-yl)-2-(6-fluoro-2,3-dimethylphenyl)propyl)-1,3,4-oxadiazol-2 (3H)-one]	< 0.02 µM	≤ 1 µM
COC(C)(C)CN1CN([C@H](c2n[nH]c(=O)o2)[C@H](C)c2c(F)ccc(C)c2C)S(=O)(=O)c2ccc(Cl)cc21 [Example 98, 5-((1S,2R)-1-(6-chloro-4-(2-methoxy-2-methylpropyl)-1,1-dioxido-3,4-dihydro-2H-benzo[e][1,2,4]thiadiazin-2-yl)-2-(6-fluoro-2,3-dimethylphenyl)propyl)-1,3,4-oxadiazol-2 (3H)-one]	< 0.02 µM	≤ 1 µM
Cc1ccc(F)c([C@@H](C)[C@@H](c2n[nH]c(=O)o2)N2CN([C@@H]3CCN(CC(F)(F)F)C3)c3cc(Cl)ccc3S2(=O)=O)c1C [Example 99, 5-((1S,2R)-1-(6-chloro-1,1-dioxido-4-((R)-1-(2,2,2-trifluoroethyl)pyrrolidin-3-yl)-3,4-dihydro-2H-benzo[e][1,2,4]thiadiazin-2-yl)-2-(6-fluoro-2,3-dimethylphenyl)propyl)-1,3,4-oxadiazol-2 (3H)-one]	0.02 to 0.1 µM	≤ 1 µM
Cc1ccc(F)c([C@@H](C)[C@@H](c2n[nH]c(=O)o2)N2CN(C3CC3)c3cc(Cl)cc(C(C)Cl)c3S2(=O)=O)c1C (stereo partly drawn) [Example 100, 5-((1S,2R)-1-(6-chloro-8-(1-chloroethyl)-4-cyclopropyl-1,1-dioxido-3,4-dihydro-2H-benzo[e][1,2,4]thiadiazin-2-yl)-2-(6-fluoro-2,3-dimethylphenyl)propyl)-1,3,4-oxadiazol-2 (3H)-one]	0.02 to 0.1 µM	1 to 5 µM

More lines, now with the values ahead:

IC50 [1]	IC50 [2]	Compound
0.02 to 0.1 µM	1 to 5 µM	Cc1ccc(F)c([C@@H](C)[C@@H](c2n[nH]c(=O)o2)N2CN([C@H]3CCN(CC(F)(F)F)C3)c3cc(Cl)ccc3S2(=O)=O)c1C [Example 101, 5-((1S,2R)-1-(6-chloro-1,1-dioxido-4-((S)-1-(2,2,2-trifluoroethyl)pyrrolidin-3-yl)-3,4-dihydro-2H-benzo[e][1,2,4]thiadiazin-2-yl)-2-(6-fluoro-2,3-dimethylphenyl)propyl)-1,3,4-oxadiazol-2 (3H)-one]
< 0.02 µM	≤ 1 µM	CC(=O)c1cc(Cl)cc2c1S(=O)(=O)N([C@H](c1n[nH]c(=O)o1)[C@H](C)c1c(F)ccc(C)c1C)CO2 [Example 102, 5-((1S,2R)-1-(8-acetyl-6-chloro-1,1-dioxidobenzo[e][1,4,3]oxathiazin-2 (3H)-yl)-2-(6-fluoro-2,3-dimethylphenyl)propyl)-1,3,4-oxadiazol-2 (3H)-one]
1 to 10 µM	5 to 10 µM	CC(=O)c1cc(Cl)cc2c1S(=O)(=O)N([C@H](c1n[nH]c(=O)o1)[C@@H](C)c1c(F)ccc(C)c1C)CO2 [Example 103, 5-((1S,2S)-1-(8-acetyl-6-chloro-1,1-dioxidobenzo[e][1,4,3]oxathiazin-2 (3H)-yl)-2-(6-fluoro-2,3-dimethylphenyl)propyl)-1,3,4-oxadiazol-2 (3H)-one]
< 0.02 µM	≤ 1 µM	Cc1ccc(F)c([C@@H](C)[C@@H](c2n[nH]c(=O)o2)N2CN([C@@H]3CCN(CCF)C3)c3cc(Cl)ccc3S2(=O)=O)c1C [Example 104, 5-((1S,2R)-1-(6-chloro-4-((R)-1-(2-fluoroethyl)pyrrolidin-3-yl)-1,1-dioxido-3,4-dihydro-2H-benzo[e][1,2,4]thiadiazin-2-yl)-2-(6-fluoro-2,3-dimethylphenyl)propyl)-1,3,4-oxadiazol-2 (3H)-one]
< 0.02 µM	1 to 5 µM	Cc1ccc(F)c([C@@H](C)[C@@H](c2n[nH]c(=O)o2)N2CN(CCN3CCN(C)CC3)c3cc(Cl)ccc3S2(=O)=O)c1C [Example 105, 5-((1S,2R)-1-(6-chloro-4-(2-(4-methylpiperazin-1-yl)ethyl)-1,1-dioxido-3,4-dihydro-2H-benzo[e][1,2,4]thiadiazin-2-yl)-2-(6-fluoro-2,3-dimethylphenyl)propyl)-1,3,4-oxadiazol-2 (3H)-one]
< 0.02 µM	≤ 1 µM	Cc1ccc(F)c([C@@H](C)[C@@H](c2n[nH]c(=O)o2)N2CN([C@H]3CCN(CCF)C3)c3cc(Cl)ccc3S2(=O)=O)c1C [Example 106, 5-((1S,2R)-1-(6-chloro-4-((S)-1-(2-fluoroethyl)pyrrolidin-3-yl)-1,1-dioxido-3,4-dihydro-2H-benzo[e][1,2,4]thiadiazin-2-yl)-2-(6-fluoro-2,3-dimethylphenyl)propyl)-1,3,4-oxadiazol-2 (3H)-one]
